{"source": "paper PMC6934184", "about": "“Selective DNA-PKcs inhibition extends the therapeutic index of localized radiotherapy and chemotherapy” (The Journal of Clinical Investigation, 2019)", "target": "T1, FLT1 (VEGFR1) (Homo sapiens, UniProt P17948)", "T1 construct": "purchased Thermo Fisher Scientific (Life Technologies) SelectScreen", "T1 sequence (P17948 27-1338)": "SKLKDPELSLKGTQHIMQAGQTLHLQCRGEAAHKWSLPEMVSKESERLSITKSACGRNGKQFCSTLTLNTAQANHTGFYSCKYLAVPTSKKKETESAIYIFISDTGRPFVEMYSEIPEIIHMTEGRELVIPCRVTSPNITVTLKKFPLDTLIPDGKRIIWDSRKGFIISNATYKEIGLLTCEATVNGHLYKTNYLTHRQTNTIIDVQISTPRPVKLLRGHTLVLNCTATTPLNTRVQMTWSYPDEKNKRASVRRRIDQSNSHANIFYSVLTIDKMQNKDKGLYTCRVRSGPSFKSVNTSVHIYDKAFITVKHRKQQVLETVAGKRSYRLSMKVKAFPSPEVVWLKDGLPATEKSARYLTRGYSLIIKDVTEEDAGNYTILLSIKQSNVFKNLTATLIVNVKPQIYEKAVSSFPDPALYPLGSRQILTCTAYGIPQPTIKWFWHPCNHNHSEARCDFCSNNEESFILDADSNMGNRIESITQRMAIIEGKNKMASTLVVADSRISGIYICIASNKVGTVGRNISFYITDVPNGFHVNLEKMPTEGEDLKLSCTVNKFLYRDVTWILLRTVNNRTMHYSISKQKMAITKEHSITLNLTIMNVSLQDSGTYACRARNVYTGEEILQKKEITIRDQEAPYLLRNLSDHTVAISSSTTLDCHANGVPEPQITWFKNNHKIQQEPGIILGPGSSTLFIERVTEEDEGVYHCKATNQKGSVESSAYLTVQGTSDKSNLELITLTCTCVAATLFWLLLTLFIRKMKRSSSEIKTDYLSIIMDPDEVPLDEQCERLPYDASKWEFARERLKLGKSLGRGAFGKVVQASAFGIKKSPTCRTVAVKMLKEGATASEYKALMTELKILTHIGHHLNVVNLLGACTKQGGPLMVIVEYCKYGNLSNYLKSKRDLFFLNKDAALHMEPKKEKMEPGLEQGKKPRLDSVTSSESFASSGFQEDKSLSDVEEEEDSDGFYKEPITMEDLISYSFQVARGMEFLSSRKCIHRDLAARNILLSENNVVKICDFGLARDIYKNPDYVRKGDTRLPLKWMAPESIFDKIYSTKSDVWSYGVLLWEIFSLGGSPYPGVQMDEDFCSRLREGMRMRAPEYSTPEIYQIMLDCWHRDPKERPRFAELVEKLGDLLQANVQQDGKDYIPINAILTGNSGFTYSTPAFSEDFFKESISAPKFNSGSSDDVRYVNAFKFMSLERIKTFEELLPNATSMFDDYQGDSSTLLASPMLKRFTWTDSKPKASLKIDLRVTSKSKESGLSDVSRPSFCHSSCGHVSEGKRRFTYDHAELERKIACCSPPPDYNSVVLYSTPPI", "test": "SelectScreen Z'LYTE", "assay_type": "biochemical", "summary_of_the_method": "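SelectScreen broad panel; activity (Z'LYTE, Adapta) plus binding formats. ATP: Km app for CSF1R Z'LYTE; 10 for CAMK1 Adapta. Readout = % per kinase.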", "data": [{"molecule": "CN(C(=O)CN1CCOCC1)c1ccc2sc3c(-c4cccc5c(=O)cc(N6CC7CCC(C6)O7)oc45)cccc3c2c1", "note": "[NU5455]", "values": [{"measurement": "inhibition at 1 µM", "value": 6.5, "unit": "%"}]}]}
